Test results from patent US7541367B2, “3-benzoimidazolyl-pyrazolopyridines useful in treating kinase disorders” (Janssen Pharmaceutica, N.V., priority 2005, dated 2009).

Key:
HCT-116 colon carcinoma = assay: Cell Proliferation Inhibition Assay (14C-thymidine incorporation), HCT-116; assay type: cell-based; conditions: Homo sapiens;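 further: proliferation measured as methyl 14C-thymidine uptake into new DNA, counted in 96-well scintillating microplates, compared with DMSO-only control wells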
Aurora-A = molecular target: T1, Aurora-A (Mus musculus, UniProt P97477); assay: Aurora-A kinase screening assay (33P-ATP FlashPlate); assay type: biochemical; conditions: 10 μM ATP, 1 hr at 30° C;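 further: His-tagged mouse Aurora-A phosphorylating a biotinylated peptide captured on streptavidin plates, read as 33P uptake by scintillation counting, 1% DMSO, inhibition scaled between per-plate maximum and minimum signals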
T1 construct: polyhistidine (N)
T1 sequence (P97477 1-395): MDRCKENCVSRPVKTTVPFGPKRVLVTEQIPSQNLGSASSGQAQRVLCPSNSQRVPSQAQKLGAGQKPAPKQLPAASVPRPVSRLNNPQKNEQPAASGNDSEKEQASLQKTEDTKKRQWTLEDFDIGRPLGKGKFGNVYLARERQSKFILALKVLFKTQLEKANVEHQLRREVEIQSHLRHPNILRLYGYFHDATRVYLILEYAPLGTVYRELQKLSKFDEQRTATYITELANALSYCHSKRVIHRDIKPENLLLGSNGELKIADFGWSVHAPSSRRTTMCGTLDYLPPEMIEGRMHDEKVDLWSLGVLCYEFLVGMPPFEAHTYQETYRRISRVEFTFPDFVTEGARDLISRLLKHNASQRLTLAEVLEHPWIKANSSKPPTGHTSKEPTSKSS

VEGF-R2 = molecular target: T2, VEGF-R2 (Rattus norvegicus, UniProt O08775); assay: VEGF-R2 kinase screening assay (33P-ATP FlashPlate); assay type: biochemical; conditions: rat VEGF-R2 kinase domain; 10 μM ATP; 1 hr at 30° C;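 further: Read-out is ³³P incorporation from ³³P-γ-ATP into biotinylated peptide substrate captured on streptavidin FlashPlate, counted by scintillation, 1% DMSO final, inhibition scaled between per-plate maximum and minimum signals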
T2 construct: polyhistidine (N)

RET = molecular target: T3, RET (Homo sapiens, UniProt P07949); assay: RET kinase screening assay (33P-ATP FlashPlate); assay type: biochemical; conditions: human RET kinase domain; 10 μM ATP; 1 hr at 30° C;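 further: biotinylated peptide substrate captured on streptavidin FlashPlate, 33P phosphate transfer read by scintillation counting, 1% DMSO, lower incorporation means inhibition, percent relative to per-plate maximum and minimum signals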
T3 construct: polyhistidine (N)
T3 sequence (P07949 658-1114 limits assumed): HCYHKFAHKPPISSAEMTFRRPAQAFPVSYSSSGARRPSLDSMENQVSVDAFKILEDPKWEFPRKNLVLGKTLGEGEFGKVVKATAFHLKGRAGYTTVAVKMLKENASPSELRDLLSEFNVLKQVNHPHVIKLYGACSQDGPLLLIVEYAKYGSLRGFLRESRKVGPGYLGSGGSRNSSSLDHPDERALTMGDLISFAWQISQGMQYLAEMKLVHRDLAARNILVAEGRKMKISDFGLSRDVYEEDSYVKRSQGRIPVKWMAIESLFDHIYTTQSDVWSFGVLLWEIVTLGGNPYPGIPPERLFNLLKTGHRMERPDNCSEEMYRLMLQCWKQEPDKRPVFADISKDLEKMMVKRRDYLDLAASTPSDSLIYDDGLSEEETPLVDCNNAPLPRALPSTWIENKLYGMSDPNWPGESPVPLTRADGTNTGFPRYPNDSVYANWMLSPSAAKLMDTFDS

Lyn kinase = molecular target: T4, Lyn kinase (Homo sapiens, UniProt P07948); assay: Lyn Kinase Assay; assay type: biochemical; conditions: 5 μM ATP
T4 construct: purchased Upstate Biotechnology, Lake Placid, N.Y
Method: Test compound in 100% DMSO (0.5 μL) was added to the appropriate wells. Diluted Lyn kinase (human) (Accession Number EMBL M16038) (Upstate Biotechnology, Lake Placid, N.Y.) (diluted in a buffer consisting of 50 mM Tris at pH 7.5, 0.1 mM EGTA, Sodium Vanadate (0.1 mM), β-mercaptoethanol (0.1%) and 1 mg/mL bovine serum albumin) (2.5 μL) was added to the wells to initiate the reactions.
The reaction plates were incubated at 30° C. for 40 min. The reaction was terminated by the addition of a 3% phosphoric acid solution (5 μL). The reaction product (10 μL) was spotted onto a P30 filtermat and washed for 5 minutes in phosphoric acid (75 mM). The wash sequence was repeated two more times, followed with one final wash in methanol. The plates were then dried, sealed and read on the TopCount scintillation counter after adding 30 μL scintillation fluid.
(§1) A maximum and minimum signal for the assay was determined on each plate. The percent inhibition of a test compound was calculated according to the formula: […]
For a series of test concentrations, the IC50 was derived by graphing percent inhibition against the log of the concentrations tested for a given compound with results shown in Table 3
(§2) For compounds with multiple values, each value represents a separate assay result.

[1] = system: HeLa cervical adenocarcinoma; assay: Cell Proliferation Inhibition Assay (14C-thymidine incorporation), HeLa; assay type: cell-based; conditions: Homo sapiens, HeLa cells;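 further: test compound in DMSO added to cells seeded in scintillating 96-well plates, DMSO-only wells as control, uptake of methyl 14C-thymidine into new DNA counted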
CDK1 = molecular target: T5, CDK1 (Homo sapiens, UniProt P06493); assay: CDK-1 kinase screening assay (33P-ATP FlashPlate); assay type: biochemical; conditions: human CDK1 with cyclin B; 10 μM ATP; 1 hr at 30° C
T5 construct: purchased New England Biolabs, Beverly, Mass; 6020; host or cells: insect cells

HER2 = molecular target: T6, HER2 (Homo sapiens, UniProt P04626); assay: HER2 kinase screening assay (33P-ATP FlashPlate); assay type: biochemical; conditions: GST-HIS6 HER-2 aa 679 to 1255; 10 μM ATP; 1 hr at 30° C;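 further: Biotin-poly(GT) 4:1 peptide captured on streptavidin FlashPlate, 33P transfer from γ-ATP read by scintillation counting, lower incorporation means inhibition, 1% DMSO final, 100 µL reaction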
T6 construct: GST (Glutathione-S-Transferase) (N); HIS6 (N); thrombin cleavage site (N); purchased Proqinase, Freiburg, Germany

A375 malignant melanoma = assay: Cell Proliferation Inhibition Assay (14C-thymidine incorporation), A375; assay type: cell-based; conditions: Homo sapiens, A-375, A375 cells;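 further: proliferation measured by radiolabelled thymidine uptake into new DNA, counted in scintillating 96-well plates, compound-treated wells compared with DMSO-only control wells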
c-Src kinase = molecular target: T7, c-Src kinase (Homo sapiens, UniProt P12931); assay: c-Src Kinase Assay; assay type: biochemical; conditions: 5 μM ATP
T7 construct: purchased Upstate Biotechnology, Lake Placid, N.Y
Method: A mixture of a 10× kinase buffer (80 mM MOPS at pH 7.0, 2 mM EDTA and 100 mM Magnesium Chloride), ATP (5 μM final from a 10 mM stock), a Cdc2 peptide […] (100 μM final from a 2.5 mM stock), γ-^33P ATP (10 μCi/μL stock) and water (for a total of 20 μL/well) was added to each well of a Streptavidin Flashplate.
Test compound in 100% DMSO (0.5 μL) was added to the appropriate wells. Diluted c-Src kinase (human) (Accession Number SWISS-PROT P12931) (Upstate Biotechnology, Lake Placid, N.Y.) (diluted in a buffer consisting of 20 mM MOPS at pH 7.0, 1 mM EDTA, β-mercaptoethanol (0.1%), Brij-35 (0.01%), glycerol (5%), and 1 mg/mL bovine serum albumin) (2.5 μL) was added to the wells to initiate the reactions. The reaction plates were incubated at 30° C. for 40 min. The reaction was terminated by the addition of a 3% phosphoric acid solution (5 μL). The reaction product (10 μL) was spotted onto a P30 filtermat and washed for 5 minutes in phosphoric acid (75 mM). The wash sequence was repeated two more times, followed with one final wash in methanol. The plates were then dried, sealed and read on the TopCount scintillation counter after adding 30 μL scintillation fluid.
as §1
For a series of test concentrations, the IC50 was derived by graphing percent inhibition against the log of the concentrations tested for a given compound with results shown in Table 2
as §2

T2 sequence (O08775 786-1343): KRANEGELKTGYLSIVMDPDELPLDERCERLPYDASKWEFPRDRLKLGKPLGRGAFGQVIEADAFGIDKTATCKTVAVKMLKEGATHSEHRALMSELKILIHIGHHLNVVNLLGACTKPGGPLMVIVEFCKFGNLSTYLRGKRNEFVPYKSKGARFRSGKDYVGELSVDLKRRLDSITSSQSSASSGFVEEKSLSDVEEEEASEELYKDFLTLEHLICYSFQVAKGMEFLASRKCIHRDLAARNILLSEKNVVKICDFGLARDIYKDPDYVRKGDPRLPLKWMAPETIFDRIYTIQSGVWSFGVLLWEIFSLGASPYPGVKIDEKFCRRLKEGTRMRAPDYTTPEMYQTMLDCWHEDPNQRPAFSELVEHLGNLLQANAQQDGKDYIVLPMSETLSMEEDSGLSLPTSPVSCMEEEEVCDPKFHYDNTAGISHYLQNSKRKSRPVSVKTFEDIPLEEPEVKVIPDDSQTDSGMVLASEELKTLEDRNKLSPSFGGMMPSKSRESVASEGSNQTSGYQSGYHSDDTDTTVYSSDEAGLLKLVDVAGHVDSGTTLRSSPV
T4 sequence (P07948 whole entry): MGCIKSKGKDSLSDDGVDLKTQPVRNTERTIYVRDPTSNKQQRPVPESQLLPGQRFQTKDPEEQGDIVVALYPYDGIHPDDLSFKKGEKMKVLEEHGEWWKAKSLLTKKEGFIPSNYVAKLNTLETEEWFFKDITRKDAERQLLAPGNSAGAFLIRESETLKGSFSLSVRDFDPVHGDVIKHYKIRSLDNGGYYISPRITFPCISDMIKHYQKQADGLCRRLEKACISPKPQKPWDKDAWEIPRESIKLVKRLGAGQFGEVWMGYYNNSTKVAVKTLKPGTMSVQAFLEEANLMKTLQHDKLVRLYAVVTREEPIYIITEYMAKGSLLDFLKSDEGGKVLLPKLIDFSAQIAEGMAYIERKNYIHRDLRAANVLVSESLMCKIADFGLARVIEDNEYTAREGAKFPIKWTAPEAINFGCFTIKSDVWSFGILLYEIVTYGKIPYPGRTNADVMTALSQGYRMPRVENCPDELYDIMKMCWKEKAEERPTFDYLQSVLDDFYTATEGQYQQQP
T5 sequence (P06493 whole entry): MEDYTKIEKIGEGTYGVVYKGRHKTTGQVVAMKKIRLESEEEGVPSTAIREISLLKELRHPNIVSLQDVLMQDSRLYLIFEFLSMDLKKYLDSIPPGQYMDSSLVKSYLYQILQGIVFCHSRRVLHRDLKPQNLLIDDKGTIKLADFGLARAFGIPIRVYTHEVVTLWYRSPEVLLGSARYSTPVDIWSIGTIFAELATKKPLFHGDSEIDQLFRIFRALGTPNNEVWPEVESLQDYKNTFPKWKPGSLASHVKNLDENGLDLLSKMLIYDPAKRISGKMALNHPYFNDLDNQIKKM
T5 sequence (P14635 whole entry partner): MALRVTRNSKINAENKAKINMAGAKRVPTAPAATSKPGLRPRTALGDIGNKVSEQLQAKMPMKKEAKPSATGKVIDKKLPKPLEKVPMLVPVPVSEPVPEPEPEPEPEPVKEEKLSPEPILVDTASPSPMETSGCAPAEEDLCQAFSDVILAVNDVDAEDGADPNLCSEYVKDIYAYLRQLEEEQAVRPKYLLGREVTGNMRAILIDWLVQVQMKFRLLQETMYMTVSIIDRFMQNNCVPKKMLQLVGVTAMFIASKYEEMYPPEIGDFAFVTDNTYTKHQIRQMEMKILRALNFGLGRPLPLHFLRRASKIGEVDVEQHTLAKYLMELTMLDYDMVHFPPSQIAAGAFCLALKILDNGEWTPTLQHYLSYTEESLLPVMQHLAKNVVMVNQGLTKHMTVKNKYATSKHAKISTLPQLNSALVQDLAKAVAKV
T6 sequence (P04626 679-1255): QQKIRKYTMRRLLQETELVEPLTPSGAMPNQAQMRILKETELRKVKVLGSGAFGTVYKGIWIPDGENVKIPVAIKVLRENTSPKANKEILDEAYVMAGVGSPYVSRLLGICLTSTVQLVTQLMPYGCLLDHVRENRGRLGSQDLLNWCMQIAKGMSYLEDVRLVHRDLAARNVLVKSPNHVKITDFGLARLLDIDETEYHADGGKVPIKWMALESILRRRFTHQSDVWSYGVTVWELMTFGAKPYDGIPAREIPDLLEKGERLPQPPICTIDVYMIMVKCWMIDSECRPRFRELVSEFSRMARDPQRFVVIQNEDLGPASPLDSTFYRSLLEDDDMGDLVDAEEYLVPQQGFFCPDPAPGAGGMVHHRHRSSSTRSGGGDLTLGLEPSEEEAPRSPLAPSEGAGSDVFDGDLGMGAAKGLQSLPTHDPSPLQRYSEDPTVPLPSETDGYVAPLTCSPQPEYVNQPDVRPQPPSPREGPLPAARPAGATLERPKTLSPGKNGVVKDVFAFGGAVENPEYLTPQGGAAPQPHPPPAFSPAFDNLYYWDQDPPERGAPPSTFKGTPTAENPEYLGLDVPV
T7 sequence (P12931 whole entry): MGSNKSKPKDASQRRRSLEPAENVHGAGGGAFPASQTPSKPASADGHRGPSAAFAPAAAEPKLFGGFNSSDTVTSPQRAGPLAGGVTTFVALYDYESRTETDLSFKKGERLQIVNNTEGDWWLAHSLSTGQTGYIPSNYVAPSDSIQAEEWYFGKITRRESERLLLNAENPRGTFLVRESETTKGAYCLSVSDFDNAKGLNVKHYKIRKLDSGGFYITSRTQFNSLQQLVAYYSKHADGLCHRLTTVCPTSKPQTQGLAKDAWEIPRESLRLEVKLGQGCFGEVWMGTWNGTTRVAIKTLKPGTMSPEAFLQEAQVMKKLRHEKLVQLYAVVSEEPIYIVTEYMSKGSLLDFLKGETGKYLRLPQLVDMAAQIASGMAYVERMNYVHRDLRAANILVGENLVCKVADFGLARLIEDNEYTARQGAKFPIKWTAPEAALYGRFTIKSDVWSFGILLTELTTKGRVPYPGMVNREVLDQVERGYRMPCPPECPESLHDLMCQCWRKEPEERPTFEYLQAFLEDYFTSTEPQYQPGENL

| IC50 (HCT-116 colon carcinoma; HCT-116, HCT-116 cells) | IC50 (Aurora-A) | IC50 (VEGF-R2) | IC50 (RET) | IC50 (Lyn kinase) | IC50 ([1]; HeLa) | IC50 (CDK1) | IC50 (HER2) | IC50 (A375 malignant melanoma) | IC50 (c-Src kinase) | SMILES | IC50 (HCT-116 colon carcinoma; HCT-116 cells) | IC50 [1] |
| --- | --- | --- | --- | --- | --- | --- | --- | --- | --- | --- | --- | --- |
| 739 nM | 87.3 nM | ~100 nM | > 1000 nM | 9.65 nM | 1880 nM | 32.2 nM | 1850 nM | 2530 nM | 5.18 nM | CN1CCN(c2ccc3[nH]c(-c4n[nH]c5ncc(-c6cncc(CN7CCOCC7)c6)cc45)nc3c2)CC1 [Cpd 84, 3-[5-(4-methyl-piperazin-1-yl)-1H-benzoimidazol-2-yl]-5-(5-morpholin-4-ylmethyl-pyridin-3-yl)-1H-pyrazolo[3,4-b]pyridine] |  |  |
| 426 nM | 154 nM | > 10000 nM | ~1000 nM | 4.35 nM | 334 nM | 64.8 nM | > 100000 nM | 302 nM | 1.13 nM | CN(C)c1ccc(NC(=O)c2cccc3[nH]c(-c4n[nH]c5ncc(-c6cncc7ccccc67)cc45)nc23)cc1 [Cpd 49, 2-(5-isoquinolin-4-yl-1H-pyrazolo[3,4-b]pyridin-3-yl)-1H-benzoimidazole-4-carboxylic acid (4-dimethylamino-phenyl)-amide] |  |  |
| 77 nM | > 1000 nM | ~1000 nM | > 100000 nM | 2890 nM | 1730 nM | > 10000 nM | > 100000 nM | 18.5 nM | 597 nM | COCc1cccc2[nH]c(-c3n[nH]c4ncc(-c5ccc(N6CCNCC6)nc5)cc34)nc12 [Cpd 69, 3-(4-methoxymethyl-1H-benzoimidazol-2-yl)-5-(6-piperazin-1-yl-pyridin-3-yl)-1H-pyrazolo[3,4-b]pyridine] |  |  |
| 203 nM | ~100000 nM | > 100000 nM | > 100000 nM | 1140 nM | 1180 nM | 123 nM | > 100000 nM | 256 nM | 1170 nM | COCc1cccc2[nH]c(-c3nn(C)c4ncc(-c5cncc6ccccc56)cc34)nc12 [Cpd 33, 4-[3-(4-methoxymethyl-1H-benzoimidazol-2-yl)-1-methyl-1H-pyrazolo[3,4-b]pyridin-5-yl]-isoquinoline] |  |  |
| 459 nM | 12400 nM | 3900 nM | > 10000 nM | 529 nM | 2700 nM | 339 nM | > 100000 nM | 168 nM | 653 nM | COCc1cccc2[nH]c(-c3n[nH]c4ncc(-c5cncc(CNC(C)C)c5C)cc34)nc12 [Cpd 58, isopropyl-{5-[3-(4-methoxymethyl-1H-benzoimidazol-2-yl)-1H-pyrazolo[3,4-b]pyridin-5-yl]-4-methyl-pyridin-3-ylmethyl}-amine] |  |  |
| 488 nM | ~1000 nM | ~10 nM | > 10000 nM | 23.6 nM | 300 nM | 18.5 nM | > 100000 nM | 188 nM | 5 nM | O=C(Nc1cccnc1)c1cccc2[nH]c(-c3n[nH]c4ncc(-c5cncc6ccccc56)cc34)nc12 [Cpd 48, 2-(5-isoquinolin-4-yl-1H-pyrazolo[3,4-b]pyridin-3-yl)-1H-benzoimidazole-4-carboxylic acid pyridin-3-ylamide] |  |  |
| 29.2 nM | > 10000 nM | > 100000 nM | > 100000 nM | 1050 nM | 640 nM | 23.6 nM | > 100000 nM | 10.2 nM | 375 nM | COCc1cccc2[nH]c(-c3n[nH]c4ncc(-c5cncc(C=NO)c5)cc34)nc12 [Cpd 72, 5-[3-(4-methoxymethyl-1H-benzoimidazol-2-yl)-1H-pyrazolo[3,4-b]pyridin-5-yl]-pyridine-3-carbaldehyde oxime] |  |  |
| 283 nM | > 10000 nM | ~1000 nM | > 100000 nM | 9010 nM | 2260 nM | 375 nM | > 100000 nM | 150 nM | 278 nM | COCc1cccc2[nH]c(-c3n[nH]c4ncc(-c5ccc(F)nc5)cc34)nc12 [Cpd 71, 5-(6-fluoro-pyridin-3-yl)-3-(4-methoxymethyl-1H-benzoimidazol-2-yl)-1H-pyrazolo[3,4-b]pyridine] |  |  |
| 31.3 nM | 57.2 nM | 149 nM |  | 2.28 nM | 12.2 nM | 1.59 nM | ~10000 nM | 12.9 nM | 0.635 nM | O=C(NC1CC1)c1cccc2[nH]c(-c3n[nH]c4ncc(-c5cncc6ccccc56)cc34)nc12 [Cpd 47, 2-(5-isoquinolin-4-yl-1H-pyrazolo[3,4-b]pyridin-3-yl)-1H-benzoimidazole-4-carboxylic acid cyclopropylamide] |  |  |
| 1500 nM | 263 nM | 73.4 nM |  | 2.43 nM | 1450 nM | 7.67 nM | 1490 nM | 1060 nM | 6.63 nM | CC(C)NCc1cncc(-c2cnc3[nH]nc(-c4nc5cc(N6CCN(C)CC6)ccc5[nH]4)c3c2)c1 [Cpd 83, isopropyl-(5-{3-[5-(4-methyl-piperazin-1-yl)-1H-benzoimidazol-2-yl]-1H-pyrazolo[3,4-b]pyridin-5-yl}-pyridin-3-ylmethyl)-amine] |  |  |

| SMILES | IC50 (HCT-116 colon carcinoma; HCT-116, HCT-116 cells) | IC50 (Aurora-A) | IC50 (VEGF-R2) | IC50 (RET) | IC50 (Lyn kinase) | IC50 ([1]; HeLa) | IC50 (CDK1) | IC50 (HER2) | IC50 (A375 malignant melanoma) | IC50 (c-Src kinase) | IC50 (HCT-116 colon carcinoma; HCT-116 cells) | IC50 [1] |
| --- | --- | --- | --- | --- | --- | --- | --- | --- | --- | --- | --- | --- |
| CNCc1cncc(-c2cnc3[nH]nc(-c4nc5cc(N6CCN(C)CC6)ccc5[nH]4)c3c2)c1 [Cpd 81, methyl-(5-{3-[5-(4-methyl-piperazin-1-yl)-1H-benzoimidazol-2-yl]-1H-pyrazolo[3,4-b]pyridin-5-yl}-pyridin-3-ylmethyl)-amine] |  | 173 nM | 35.9 nM |  | 170 nM |  | 3.04 nM | 715 nM | 768 nM | 225 nM | 600 nM | 444 nM |
